Assay results as given in ChEMBL document CHEMBL1201862, “PubChem BioAssay data set” (2004).
Active and inactive are the calls of the source.

Assays:
[1] = molecular target: T1, Heat shock factor protein 1 (Mus musculus, UniProt P38532); experiment: enhancement of HSF1-driven luciferase signal – cell-based, NIH3T3, luminescence, dose retest, confirmation (AID 435004); type: functional;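 also: stress induced by proteasome inhibitor MG132 added 30 min after compound; luciferase reporter driven by HSF1 response element in NIH3T3 cells; actives raise luminescence as potentiators of the MG132 stress response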
T1 sequence (P38532 whole entry): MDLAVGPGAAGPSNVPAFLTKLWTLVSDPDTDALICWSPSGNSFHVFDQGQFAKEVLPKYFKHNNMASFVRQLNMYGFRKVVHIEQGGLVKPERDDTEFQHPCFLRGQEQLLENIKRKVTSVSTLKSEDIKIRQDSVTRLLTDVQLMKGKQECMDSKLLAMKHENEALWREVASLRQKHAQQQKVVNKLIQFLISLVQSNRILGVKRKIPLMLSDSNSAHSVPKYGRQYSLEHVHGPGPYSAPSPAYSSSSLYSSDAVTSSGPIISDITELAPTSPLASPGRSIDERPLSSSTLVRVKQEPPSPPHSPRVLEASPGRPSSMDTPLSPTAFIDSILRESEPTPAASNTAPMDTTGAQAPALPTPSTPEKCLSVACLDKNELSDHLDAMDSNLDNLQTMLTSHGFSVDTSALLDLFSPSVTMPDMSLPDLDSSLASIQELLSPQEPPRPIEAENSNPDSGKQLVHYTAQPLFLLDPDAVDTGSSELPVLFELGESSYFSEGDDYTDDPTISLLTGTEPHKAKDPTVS

[2] = Intein inhibitors as potential Tuberculosis drugs, a cytotoxicity screen. [Related pubchem assays (depositor defined):AID2221, AID2223, AID434968, AID435010, AID449749, AID449750, AID489010]; type: functional
[3] = molecular target: T2, Replicative DNA helicase DnaB (Mycobacterium tuberculosis, UniProt P9WMR3); experiment: DnaB intein splicing inhibitors, dose response, biochemical, cell-free fluorescence (AID 449749); type: functional
T2 sequence (P9WMR3 whole entry): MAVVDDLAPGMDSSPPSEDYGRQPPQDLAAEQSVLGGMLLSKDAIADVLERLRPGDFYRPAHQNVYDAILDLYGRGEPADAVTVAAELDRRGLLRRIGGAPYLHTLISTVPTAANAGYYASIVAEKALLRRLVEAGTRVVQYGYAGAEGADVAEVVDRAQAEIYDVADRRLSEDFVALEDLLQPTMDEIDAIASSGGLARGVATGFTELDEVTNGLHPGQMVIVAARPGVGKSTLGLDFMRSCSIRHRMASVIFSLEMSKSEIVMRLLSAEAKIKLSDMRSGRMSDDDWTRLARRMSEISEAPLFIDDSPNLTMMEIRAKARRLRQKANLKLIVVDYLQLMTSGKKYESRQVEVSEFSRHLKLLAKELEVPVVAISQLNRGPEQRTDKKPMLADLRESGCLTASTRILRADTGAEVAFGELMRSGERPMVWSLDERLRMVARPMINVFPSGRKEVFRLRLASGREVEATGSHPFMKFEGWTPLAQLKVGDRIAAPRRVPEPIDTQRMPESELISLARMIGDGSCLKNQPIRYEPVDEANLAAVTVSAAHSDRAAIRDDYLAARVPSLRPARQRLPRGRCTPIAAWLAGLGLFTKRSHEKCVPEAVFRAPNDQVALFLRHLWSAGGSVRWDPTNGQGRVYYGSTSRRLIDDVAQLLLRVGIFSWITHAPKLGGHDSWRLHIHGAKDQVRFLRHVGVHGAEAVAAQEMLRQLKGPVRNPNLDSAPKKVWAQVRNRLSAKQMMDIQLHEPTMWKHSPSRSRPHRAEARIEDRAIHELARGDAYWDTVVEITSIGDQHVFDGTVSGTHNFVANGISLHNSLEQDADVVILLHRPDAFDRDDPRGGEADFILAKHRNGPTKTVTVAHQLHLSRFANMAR

Protein RecA = molecular target: T3, Protein RecA (Mycobacterium tuberculosis, UniProt P9WHJ3); experiment: Fluorescence Cell-Free Homogeneous Dose Retest to Identify Inhibitors of RecA-Intein Splicing Activity. [Related pubchem assays (depositor defined):AID2097, AID2223, AID489010, AID492950]; type: functional
T3 sequence (P9WHJ3 whole entry): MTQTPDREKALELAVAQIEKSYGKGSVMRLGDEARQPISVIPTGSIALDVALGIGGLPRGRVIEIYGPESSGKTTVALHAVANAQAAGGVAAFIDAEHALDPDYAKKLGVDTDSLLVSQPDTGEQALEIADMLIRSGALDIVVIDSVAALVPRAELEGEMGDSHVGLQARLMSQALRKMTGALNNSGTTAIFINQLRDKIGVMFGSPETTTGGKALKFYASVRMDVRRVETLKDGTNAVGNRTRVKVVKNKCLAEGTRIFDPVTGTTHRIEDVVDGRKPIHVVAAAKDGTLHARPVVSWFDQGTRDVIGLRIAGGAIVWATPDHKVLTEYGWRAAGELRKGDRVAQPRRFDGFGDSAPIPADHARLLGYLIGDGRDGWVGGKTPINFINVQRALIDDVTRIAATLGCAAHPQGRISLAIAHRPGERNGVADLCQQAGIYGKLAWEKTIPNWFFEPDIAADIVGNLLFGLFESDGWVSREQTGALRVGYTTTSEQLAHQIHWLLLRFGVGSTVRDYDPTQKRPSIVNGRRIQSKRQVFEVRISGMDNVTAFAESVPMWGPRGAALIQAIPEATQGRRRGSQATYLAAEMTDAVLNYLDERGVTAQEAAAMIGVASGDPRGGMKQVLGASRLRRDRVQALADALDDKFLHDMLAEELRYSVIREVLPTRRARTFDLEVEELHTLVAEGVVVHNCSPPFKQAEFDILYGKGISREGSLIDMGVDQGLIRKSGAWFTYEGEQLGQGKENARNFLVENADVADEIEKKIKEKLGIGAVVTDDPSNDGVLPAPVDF

INS1 = experiment: INS-1E survival protection against cytokine death – cell-based, luminescence, retest, dose response (AID 449756); type: functional; settings: Rattus norvegicus;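 also: cell death triggered by IL-1 beta plus TNF-alpha plus IFN-gamma mixture; protective hits raise ATP signal compared with cytokine alone wells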
[4] = molecular target: T4, Histone-lysine N-methyltransferase NSD2 (Homo sapiens, UniProt O96028); type: biochemical
T4 sequence (O96028 whole entry): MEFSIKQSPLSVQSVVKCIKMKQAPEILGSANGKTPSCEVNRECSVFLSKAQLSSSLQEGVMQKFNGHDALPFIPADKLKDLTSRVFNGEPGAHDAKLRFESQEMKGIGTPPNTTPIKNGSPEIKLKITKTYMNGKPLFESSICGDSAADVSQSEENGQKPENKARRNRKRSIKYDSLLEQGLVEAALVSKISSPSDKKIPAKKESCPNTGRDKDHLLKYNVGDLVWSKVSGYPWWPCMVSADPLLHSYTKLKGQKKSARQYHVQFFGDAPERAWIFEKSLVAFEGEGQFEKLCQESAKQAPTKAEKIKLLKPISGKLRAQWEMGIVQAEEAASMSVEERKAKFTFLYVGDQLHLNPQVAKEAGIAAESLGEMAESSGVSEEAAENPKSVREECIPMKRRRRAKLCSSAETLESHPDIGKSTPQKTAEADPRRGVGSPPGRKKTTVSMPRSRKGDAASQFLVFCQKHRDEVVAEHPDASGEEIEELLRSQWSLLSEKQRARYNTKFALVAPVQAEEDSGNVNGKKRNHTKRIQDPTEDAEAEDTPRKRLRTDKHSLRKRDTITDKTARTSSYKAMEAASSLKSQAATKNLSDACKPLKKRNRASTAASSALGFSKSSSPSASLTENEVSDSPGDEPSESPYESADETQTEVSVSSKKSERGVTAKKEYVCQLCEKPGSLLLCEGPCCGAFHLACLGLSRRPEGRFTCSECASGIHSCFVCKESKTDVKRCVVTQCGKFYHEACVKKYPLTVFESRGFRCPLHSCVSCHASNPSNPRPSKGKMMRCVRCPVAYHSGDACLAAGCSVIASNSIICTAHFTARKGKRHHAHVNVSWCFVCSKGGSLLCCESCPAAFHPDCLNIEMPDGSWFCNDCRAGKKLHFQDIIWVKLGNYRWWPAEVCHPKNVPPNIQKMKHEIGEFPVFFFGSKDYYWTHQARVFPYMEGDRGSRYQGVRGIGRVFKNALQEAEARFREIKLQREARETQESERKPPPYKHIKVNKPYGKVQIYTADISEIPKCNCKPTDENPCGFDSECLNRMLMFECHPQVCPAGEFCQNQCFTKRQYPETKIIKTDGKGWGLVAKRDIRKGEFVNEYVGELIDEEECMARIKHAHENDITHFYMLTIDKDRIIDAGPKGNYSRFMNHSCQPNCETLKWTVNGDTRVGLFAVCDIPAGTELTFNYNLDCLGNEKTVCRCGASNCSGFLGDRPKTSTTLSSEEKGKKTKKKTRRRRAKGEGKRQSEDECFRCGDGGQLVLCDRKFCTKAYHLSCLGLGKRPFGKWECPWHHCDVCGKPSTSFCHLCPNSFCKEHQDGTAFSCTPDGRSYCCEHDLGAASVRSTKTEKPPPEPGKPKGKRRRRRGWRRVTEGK

Mu-type opioid receptor = Mu-type opioid receptor (Homo sapiens, UniProt P35372); experiment: SAR Analysis of Antagonists of the MOR Receptor using an Image-Based Assay - Set 3. [Related pubchem assays (depositor defined):AID1777, AID1785, AID1786, AID1966, AID2133, AID2136, AID2284, AID2285, AID2420]; type: functional
[5] = molecular target: T5, Kappa-type opioid receptor (Homo sapiens, UniProt P41145); experiment: SAR analysis of small molecule antagonists of the kappa opioid receptor via a luminescent beta-arrestin assay - Set 6. [Related pubchem assays (depositor defined):AID1777, AID1778, AID1785, AID1786, AID1966, AID2133, AID2136, AID2285]; type: functional
[6] = molecular target: Delta-type opioid receptor (Homo sapiens, UniProt P41143); experiment: SAR Analysis of Antagonists of the DOR Receptor using an Image-Based Assay - Set 3. [Related pubchem assays (depositor defined):AID1777, AID1785]; type: functional;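 also: U2OS cells expressing DOR1 and beta-arrestin GFP stimulated with 100 nM SNC80; imaging of GFP-tagged beta-arrestin moving into spots after receptor activation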
[7] = molecular target: T5, Kappa-type opioid receptor; experiment: SAR analysis of small molecule antagonists of the kappa opioid receptor via a luminescent beta-arrestin assay - Set 3. [Related pubchem assays (depositor defined):AID1777, AID1778, AID1785, AID1786, AID1966, AID2133, AID2136, AID2285, AID2495]; type: functional
[8] = molecular target: T5, Kappa-type opioid receptor; experiment: SAR analysis of Antagonists of the Kappa Opioid Receptor (KOR) using an Image-Based Assay - Set 4. [Related pubchem assays (depositor defined):AID1777, AID1785]; type: functional
[9] = viability of uninfected HEp-2 cells – cell-based, HTS, cytotoxicity control for RSV inhibitor project, dose response (AID 2410); type: functional; settings: human respiratory syncytial virus
[10] = molecular target: E3 ubiquitin-protein ligase Mdm2/Protein Mdm4 (Homo sapiens, UniProt O15151+Q00987); experiment: disruption of Mdm2/MdmX protein binding – luminescence detection, dose response (AID 504593); type: functional
Integrin alpha-4 = Integrin alpha-4 (Homo sapiens, UniProt P13612); experiment: allosteric modulators of alpha4 integrin VLA-4 – cell-based, LIBS antibody binding, flow cytometry, SAR follow-up (AID 488791); type: functional
[11] = molecular target: T6, Microphthalmia-associated transcription factor (Homo sapiens, UniProt O75030); experiment: MITF Measured in Cell-Based System Using Plate Reader - 2084-01_Inhibitor_DoseNoFile_CherryPick_Activity_Set2. [Related pubchem assays (depositor defined):AID488944]; type: functional
T6 sequence (O75030 whole entry): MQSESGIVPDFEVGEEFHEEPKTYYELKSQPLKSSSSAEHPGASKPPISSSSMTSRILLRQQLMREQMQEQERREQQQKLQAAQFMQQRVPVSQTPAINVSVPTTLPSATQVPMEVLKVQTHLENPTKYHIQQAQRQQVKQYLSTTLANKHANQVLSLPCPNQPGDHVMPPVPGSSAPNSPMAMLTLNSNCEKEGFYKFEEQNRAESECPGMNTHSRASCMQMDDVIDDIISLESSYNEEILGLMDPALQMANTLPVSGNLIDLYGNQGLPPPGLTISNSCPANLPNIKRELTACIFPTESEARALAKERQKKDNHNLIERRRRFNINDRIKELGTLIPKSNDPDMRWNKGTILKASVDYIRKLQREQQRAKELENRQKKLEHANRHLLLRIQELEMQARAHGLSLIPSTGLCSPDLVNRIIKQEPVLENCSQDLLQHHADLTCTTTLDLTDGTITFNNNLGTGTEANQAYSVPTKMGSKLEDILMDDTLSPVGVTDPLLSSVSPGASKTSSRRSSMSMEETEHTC

[12] = molecular target: T6, Microphthalmia-associated transcription factor; experiment: reducers of TRPM1 reporter luminescence, concentration series – cell-based, SK-MEL-5, cherry-picked, set 4, MITF inhibitor project, dose response (AID 493102); type: functional
[13] = molecular target: T6, Microphthalmia-associated transcription factor; experiment: reducers of TRPM1 reporter luminescence, concentration series – cell-based, SK-MEL-5, cherry-picked, set 3, MITF inhibitor project, dose response (AID 493073); type: functional;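 also: SK-MEL-5 melanoma cells with luciferase driven by the MITF target TRPM1 promoter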

T5 sequence (P41145 whole entry): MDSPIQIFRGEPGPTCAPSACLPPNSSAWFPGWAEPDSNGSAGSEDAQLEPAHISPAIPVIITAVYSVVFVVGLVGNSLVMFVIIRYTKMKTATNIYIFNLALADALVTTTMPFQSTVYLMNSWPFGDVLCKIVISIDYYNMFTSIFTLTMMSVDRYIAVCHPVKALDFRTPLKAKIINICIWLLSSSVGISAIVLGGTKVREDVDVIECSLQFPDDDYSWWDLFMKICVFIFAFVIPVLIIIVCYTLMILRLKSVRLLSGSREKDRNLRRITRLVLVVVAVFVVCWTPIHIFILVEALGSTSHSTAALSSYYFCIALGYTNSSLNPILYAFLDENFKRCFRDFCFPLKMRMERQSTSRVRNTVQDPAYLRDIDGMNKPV
Mu-type opioid receptor, sequence (P35372 whole entry): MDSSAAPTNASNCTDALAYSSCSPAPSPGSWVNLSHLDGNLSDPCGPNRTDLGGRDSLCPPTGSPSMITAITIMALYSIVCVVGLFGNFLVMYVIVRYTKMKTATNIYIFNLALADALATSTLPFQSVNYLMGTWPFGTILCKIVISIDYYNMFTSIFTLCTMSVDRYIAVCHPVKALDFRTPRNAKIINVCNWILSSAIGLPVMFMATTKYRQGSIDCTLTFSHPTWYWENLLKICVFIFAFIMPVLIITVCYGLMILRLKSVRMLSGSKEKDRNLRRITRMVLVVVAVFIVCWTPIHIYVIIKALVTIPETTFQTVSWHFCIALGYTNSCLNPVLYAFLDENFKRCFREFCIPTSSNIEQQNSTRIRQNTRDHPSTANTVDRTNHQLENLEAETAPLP
Delta-type opioid receptor, sequence (P41143 whole entry): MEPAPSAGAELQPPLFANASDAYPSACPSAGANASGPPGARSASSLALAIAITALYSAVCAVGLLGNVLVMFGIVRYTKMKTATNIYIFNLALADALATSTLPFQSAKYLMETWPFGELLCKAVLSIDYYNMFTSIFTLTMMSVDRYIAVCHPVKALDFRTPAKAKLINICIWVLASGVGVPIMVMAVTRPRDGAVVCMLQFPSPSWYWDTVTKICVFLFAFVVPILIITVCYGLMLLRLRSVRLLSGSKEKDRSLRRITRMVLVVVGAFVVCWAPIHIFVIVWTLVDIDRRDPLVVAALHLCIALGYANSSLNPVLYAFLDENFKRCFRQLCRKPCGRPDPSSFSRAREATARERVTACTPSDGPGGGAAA
Integrin alpha-4, sequence (P13612 whole entry): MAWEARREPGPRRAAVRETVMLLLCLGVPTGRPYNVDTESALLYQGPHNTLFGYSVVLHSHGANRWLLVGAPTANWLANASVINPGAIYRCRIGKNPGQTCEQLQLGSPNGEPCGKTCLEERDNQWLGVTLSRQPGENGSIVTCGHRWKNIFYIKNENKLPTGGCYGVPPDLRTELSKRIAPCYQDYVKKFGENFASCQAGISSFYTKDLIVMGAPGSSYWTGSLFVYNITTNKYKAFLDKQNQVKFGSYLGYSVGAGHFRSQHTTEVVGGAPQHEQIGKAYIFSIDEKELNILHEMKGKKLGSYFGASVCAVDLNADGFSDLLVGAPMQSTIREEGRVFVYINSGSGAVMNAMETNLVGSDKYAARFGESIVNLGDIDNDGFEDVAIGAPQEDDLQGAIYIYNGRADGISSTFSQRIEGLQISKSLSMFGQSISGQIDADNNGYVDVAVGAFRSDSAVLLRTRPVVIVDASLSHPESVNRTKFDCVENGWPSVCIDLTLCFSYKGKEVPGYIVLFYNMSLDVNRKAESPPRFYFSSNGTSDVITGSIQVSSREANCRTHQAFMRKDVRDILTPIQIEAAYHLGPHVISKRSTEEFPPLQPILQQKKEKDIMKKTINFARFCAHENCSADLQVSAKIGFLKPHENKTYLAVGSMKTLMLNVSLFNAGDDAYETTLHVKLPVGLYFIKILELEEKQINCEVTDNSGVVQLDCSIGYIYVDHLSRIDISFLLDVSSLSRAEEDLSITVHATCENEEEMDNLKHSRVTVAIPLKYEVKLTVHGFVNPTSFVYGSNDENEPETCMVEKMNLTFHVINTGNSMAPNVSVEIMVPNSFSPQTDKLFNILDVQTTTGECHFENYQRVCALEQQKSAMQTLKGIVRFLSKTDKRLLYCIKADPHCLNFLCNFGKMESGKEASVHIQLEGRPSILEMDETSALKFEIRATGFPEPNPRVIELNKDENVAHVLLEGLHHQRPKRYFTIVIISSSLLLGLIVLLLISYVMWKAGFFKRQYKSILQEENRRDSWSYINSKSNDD
E3 ubiquitin-protein ligase Mdm2/Protein Mdm4, sequence (Q00987 whole entry): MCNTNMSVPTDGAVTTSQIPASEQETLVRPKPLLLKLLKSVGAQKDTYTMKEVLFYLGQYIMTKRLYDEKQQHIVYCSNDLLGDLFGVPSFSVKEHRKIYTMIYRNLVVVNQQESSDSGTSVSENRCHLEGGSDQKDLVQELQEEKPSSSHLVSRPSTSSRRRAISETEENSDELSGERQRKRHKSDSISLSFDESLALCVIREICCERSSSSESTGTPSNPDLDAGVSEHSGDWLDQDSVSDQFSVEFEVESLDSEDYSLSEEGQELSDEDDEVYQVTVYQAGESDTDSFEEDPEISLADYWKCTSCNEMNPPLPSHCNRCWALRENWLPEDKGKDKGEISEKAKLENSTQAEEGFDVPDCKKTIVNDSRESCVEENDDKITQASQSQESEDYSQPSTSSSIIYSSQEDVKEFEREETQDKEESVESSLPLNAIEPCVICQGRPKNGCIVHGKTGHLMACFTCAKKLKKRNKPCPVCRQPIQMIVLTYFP
E3 ubiquitin-protein ligase Mdm2/Protein Mdm4, sequence (O15151 whole entry): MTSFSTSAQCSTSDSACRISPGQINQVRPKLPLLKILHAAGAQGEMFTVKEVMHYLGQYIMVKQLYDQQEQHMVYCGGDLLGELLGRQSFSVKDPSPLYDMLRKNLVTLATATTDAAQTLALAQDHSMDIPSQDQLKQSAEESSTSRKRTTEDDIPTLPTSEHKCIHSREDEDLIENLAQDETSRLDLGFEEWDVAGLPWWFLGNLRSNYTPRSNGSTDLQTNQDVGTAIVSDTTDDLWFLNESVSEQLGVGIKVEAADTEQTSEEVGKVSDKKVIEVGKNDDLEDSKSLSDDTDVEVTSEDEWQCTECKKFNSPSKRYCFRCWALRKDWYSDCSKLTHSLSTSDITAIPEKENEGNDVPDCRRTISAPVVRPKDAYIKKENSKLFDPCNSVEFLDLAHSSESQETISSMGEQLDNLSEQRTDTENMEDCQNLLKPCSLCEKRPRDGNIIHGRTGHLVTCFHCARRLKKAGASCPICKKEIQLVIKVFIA

## CN(C1=C(NC(=O)c2ccccc2)C(=O)c2ccccc2C1=O)C1CCS(=O)(=O)C1 (configuration not stated)
[1]
  EC50: 30.9 µM (active)
[2]
  CC50: 19.2 µM (active)
[3]
  AC50: 1.7 µM (active)
Protein RecA
  EC50: 0.108 µM (active)
INS1
  AC50: 3 µM (active)
[4]
  AC50: 4.69 µM (active)

## COc1ccc(N2CCN(CCCNC(=O)Cn3c(=O)c4cccn4c4c(C)ccnc43)CC2)c(OC)c1
Mu-type opioid receptor
  IC50: 30.9 µM (inactive)
[5]
  IC50: 0.225 µM (active)
[6]
  IC50: > 32 µM (inactive)
[7]
  IC50: 0.154 µM (active)
[8]
  IC50: 0.00406 µM (active)

## Cc1cccn2c(=O)c3cc(C(=O)NCCc4ccccc4)c(=N)n(Cc4ccco4)c3nc12
[9]
  CC50: 15.5 µM (active)
[10]
  IC50: 3.68 µM (active)

## FC(F)Oc1ccc(C2=Nn3c(nnc3-c3ccccc3Cl)SC2)cc1OCC1CC1
Integrin alpha-4
  EC50: 3.89 µM (active)

## O=C(COC(=O)C1=COCCO1)Nc1c(F)cccc1F
[11]
  AC50: > 350 µM (inactive)
[12]
  AC50: > 350 µM (inactive)
[13]
  AC50: > 350 µM (inactive)
